# Measurements reported in patent US20170296568A1, “SIRTUIN GENE POTENTIATOR, AND PHARMACEUTICAL PRODUCT, COSMETIC PRODUCT, AND FOOD PRODUCT USING SAME” (MORISHITA JINTAN CO., LTD., priority 2012, published 2017).
# Test system: hSIRT1 promoter
# Assay: Screening for SIRT1 enhancing polyphenol or terpenoid: hSIRT1 promoter activity (EGFP fluorescence) in Caco-2-hSIRT1p-EGFP cells
# Format: cell-based, human
# Conditions: 10 μM, 2 days after addition, relative ratio to control (PBS), FIG. 1
# Excerpt: First, the promoter region (−1593 to −1 bp) of hSIRT1 (human SIRT1) was acquired using the LA-PCR method using, as a template, a human genome DNA extracted from TIG-1 cells (obtained from Institute of Development, Aging and Cancer, Tohoku University), with primers synthesized based on reported information of the hSIRT1 genomic sequence so as to synthesize primers having added AseI and NheI recognition sequences at their respective ends (hSIRT1p-AseI (SEQ ID NO: 1) and hSIRT1p-NheI (SEQ ID NO: 2)). The PCR reaction condition was at 94° C. for 1 minute, followed by at 98° C. for 20 seconds; and at 68° C. for 2 minutes, 34 cycles; and then at 72° C. for 10 minutes for extension reaction. LA-Taq from Takara Shuzo Co., Ltd. was used as the TaqDNApolymerase. The primers were synthesized by Nippon EGT based on our request.
# The hSIRT1 promoter fragment obtained by the LA-PCR was subjected to TA cloning using a pGEM-T Easy vector (manufactured by Promega KK). Furthermore, the base sequence thereof was confirmed by sequencing. The hSIRT1 promoter fragment, inserted into the pGEM-T Easy vector, was cut out by digestion with the restriction enzymes AseI and NheI, and the CMV promoter of a pEGFP-C3 (manufactured by Takara Bio Inc.) was removed by digestion with AseI and NheI in a similar manner, and the hSIRT1 promoter fragment was inserted into that removed site, so that phSIRT1p-EGFP was obtained.
# Transfection was performed using a LIPOFECT AMINE 2000 REAGENT (manufactured by Life Technologies) according to its protocol. On the day before the transfection, Caco-2 cells (human colonic cancer-derived cells obtained from Riken BioResource Center) were plated at 1.0×10^6 in a 10-mL dish. On the day of the transfection, phSIRT1p-EGFP (10 μg) was diluted in a serum-free OPTI-MEM medium to a volume of 750 μL, after which 15 μL of LIPOFECT AMINE Reagent was diluted in a serum-free OPTI-MEM medium to […], and they were incubated at room temperature for 5 minutes. The transfection using the LIPOFECT AMINE Reagent was performed in the absence of serum, during which the culture medium of the Caco-2 cells plated on the previous day was removed, and was replaced by 5 mL of serum-free OPTI-MEM medium. After 30 minutes of this, 1.5 mL of DNA-LIPOFECT AMINE 2000 mixture was added to each 10-mL dish. After the addition, the dish was gently shaken to mix the DNA-LIPOFECT AMINE and the OPTI-MEM. After the culture for 3 hours, the DNA-LIPOFECT AMINE mixture solution was removed, and the medium was replaced by a serum-containing culture medium. Subsequently, culture was performed under the environment at 5% CO2/95% air and 37° C. for 21 hours, and the culture medium was replaced by a new one.
# Since phSIRT1p-EGFP is resistant to the drug G418, the drug G418 was added to the transfected cells to 70 μg/mL to subject them to the drug selection for a week. The culture medium was replaced by a new one every three days, and G418 was added every time at the same concentration. Accordingly, Caco-2-hSIRT1p-EGFP cells were obtained.
# Caco-2-hSIRT1p-EGFP cells were plated at 0.6×10^4 cells/well in a 96-well plate. On the next day, 10 μM polyphenol or terpenoid, or control (PBS) was added to each well. At 2 days after the addition, the culture solution was aspirated, after which 100 μL of 4% paraformaldehyde was added to each well, and the plate was allowed to stand at room temperature for 10 minutes. After the plate was allowed to stand for 10 minutes, 4% paraformaldehyde was aspirated, 100 μL of Cellstain (registered trademark)-Hoechst 33342 solution (Dojindo) diluted 1/500 with PBS was added to each well, and the plate was allowed to stand at room temperature in the dark for 15 minutes and the solution was then aspirated. Then, 100 μL of PBS was added to each well, and the fluorescence intensity was measured using an IN Cell Analyzer 1000 (GE Healthcare, Amersham Place, UK). The promoter activity was represented by a relative ratio to the activity of the control.
row,Structure (SMILES),relative hSIRT1 promoter activity
1,O=C1O[C@H]2[C@@H]3OC(=O)c4cc(O)c(O)c(O)c4-c4c(O)c(O)c5oc(=O)c6c(c(O)c(O)c7oc(=O)c4c5c76)-c4c(cc(O)c(O)c4O)C(=O)OC[C@H]3OC(O)[C@@H]2OC(=O)c2cc(O)c(O)c(O)c2-c2c1cc(O)c(O)c2O (mixture of isomers) [punicalagin],particularly strong hSIRT1 promoter enhancing activity
2,O=C1OC[C@H]2OC(O)[C@H](O)[C@@H](O)[C@@H]2OC(=O)c2cc(O)c(O)c(O)c2-c2c(O)c(O)c3oc(=O)c4c(c(O)c(O)c5oc(=O)c2c3c54)-c2c1cc(O)c(O)c2O (mixture of isomers) [punicalin],particularly strong hSIRT1 promoter enhancing activity
3,O=c1c(O)c(-c2ccc(O)c(O)c2)oc2cc(O)ccc12 [fisetin],particularly strong hSIRT1 promoter enhancing activity
4,C[C@@]12C=Cc3occc3[C@H]1CC[C@@]13C[C@@H](CC[C@H]12)[C@@](O)(CO)C3 [kahweol],particularly strong hSIRT1 promoter enhancing activity
5,O=c1oc2cc(O)ccc2c2ccc(O)cc12 [urolithin A],particularly strong hSIRT1 promoter enhancing activity
